Measurements taken from patent publication US20260159474A1, “Aminoindane Compounds and Compositions and Methods of Their Therapeutic Use” (Solvonis Therapeutics Ireland Holdings Limited, priority 2021, published 2026).
Values joined by “and” are separate entries in the source; they are usually repeats but may differ in a detail not shown here. Identical values can stand only once.

System: extracellular serotonin (5-HT) in the nucleus accumbens (NAcc)
Assay: In vivo microdialysis in rat nucleus accumbens, serotonin
Design: species or system Sprague Dawley rats
Conditions: 7 mg/kg I.P.; for peak 5-HT level: baseline = 100%; for Serotonin (5-HT) level (% from baseline): rat NAcc
Method: Methods and Procedure: This study was conducted in compliance with previously described procedures to assure data integrity, adherence to GLP regulations, and standard preclinical study and surgery procedures. The in vivo microdialysis technique was applied to measure the over-time variations of DA, 5-HT, and NE extracellular (EC) concentrations in conscious, freely-moving Sprague Dawley rats. Levels of the neurotransmitters in microdialysis samples were determined using LC-MS/MS analysis. The experiment was also conducted with MDMA for comparative purposes.
As it relates to cannula implantation, the rats were anesthetized with isoflurane 4% in oxygen (2-2.5 L/min), then the isoflurane concentration 2-2.5% was maintained via a nose cone adapted to the stereotaxic apparatus. The rats were treated with meloxicam (0.2 mg/kg, subcutaneously, sc; Meloxidolor) and amoxicilline (150 mg/kg, sc, Betamox LA). The skull was then shaved and disinfected. Rats were then placed in a stereotaxic apparatus for small animals. One vertical guide cannula was inserted through a 1 mm hole drilled on the exposed skull. Coordinates, with respect to the bregma to target specific brain areas, followed indications from stereotaxic atlas of the rat brain. Specifically a guide cannula (MAB 4.12.IC, Agn Tho's AB, Lidinga, Sweden) was inserted in the NAcc (anteroposterior+1.6; lateral −1.6; dorsoventral −6.0). The guide cannula was then secured with dental cement and 2-4 screws. At the end of the surgery the animal was isolated in a single cage during recovery, for a period of at least one week, during which animal health conditions were checked twice daily and the weight recorded twice a week. Animals continued to be housed singly throughout the experiment. One day before the experiment the cannula stylet was removed and a microdialysis probe with a dialyzing length of 2 mm (MAB 4.12.2 Cu, Agn Tho's AB, Lidingo, Sweden) was inserted. Probes can be re-used 2 times for 2 experimental sessions after appropriate cleaning with fresh milliQ water.
Post-surgery, the rats were maintained in a heating chamber prior to waking up in order to avoid hypothermia that could be caused by anaesthesia. 5 mL of physiologic solution was subcutaneously administered immediately after surgery, and once/day for 2-3 days, if signs of dehydration are noticed. Meloxicam (Meloxidolor) 0.2 mg/kg was again administered subcutaneously the day after surgery as well as after 48 h after surgery together with Amoxicilline Long Acting (Betamox LA) 150 mg/kg. Health status and body weight was checked every day during the first week.
The animals were treated with the therapeutic compounds, and MDMA, or their vehicle (saline) according to a Latin square design over 5 separate experimental days (one day/week). The treatments were administered in a volume of 1 mL/kg intraperitoneally.
On the day of the experiment, each animal was taken into the laboratory in its home cage. Inlet tubing of the probe was attached to a dual quartz-lined two channel liquid swivel mounted on a low mass spring counterbalance arm which, in turn, was connected to a gas-tight syringe on a microinfusion pump. […] An equilibration period of about two hours of perfusion was allowed before collecting samples. Following the equilibration period, 4 basal samples were collected for each experimental animal followed by further 10 post-treatment samples. Samples were collected every 20 minutes (up to 3 hours and 20 minutes post-treatment) by means of a refrigerated auto-sampler (Univentor 820 Microsampler, AgnTho's, Sweden) maintained at +8 “C. At the end of all experimental sessions, 2 μL of 0.1% methylene blue solution was injected through the microdialysis probe, animals were euthanized, and their brains removed to confirm the correct probe-position.
As mentioned, the concentration of DA, 5-HT and NE in CSF samples were determined using an optimized method based on LC-MS/MS analysis. […]

SMILES | time at which 5-HT levels returned to baseline (rat NAcc microdialysis) [min] | time of peak 5-HT level (rat NAcc microdialysis) [min] | peak 5-HT level (rat NAcc microdialysis) [%] | Serotonin (5-HT) level (% from baseline) (0 min (basal sample)) [%] | Serotonin (5-HT) level (% from baseline) (20 min post-admin) [%] | Serotonin (5-HT) level (% from baseline) (40 min post-admin) [%] | Serotonin (5-HT) level (% from baseline) (60 min post-admin) [%] | Serotonin (5-HT) level (% from baseline) (80 min post-admin) [%] | Serotonin (5-HT) level (% from baseline) (100 min post-admin) [%] | Serotonin (5-HT) level (% from baseline) (120 min post-admin) [%] | Serotonin (5-HT) level (% from baseline) (140 min post-admin) [%] | Serotonin (5-HT) level (% from baseline) (160 min post-admin) [%] | Serotonin (5-HT) level (% from baseline) (180 min post-admin) [%] | Serotonin (5-HT) level (% from baseline) (200 min post-admin) [%] | Serotonin (5-HT) level (% from baseline) (−20 min (basal sample)) [%] | Serotonin (5-HT) level (% from baseline) (180 min post-admin, 7 mg/kg) | peak 5-HT level (rat NAcc microdialysis, 7 mg/kg)
COC(=O)c1ccc2c(c1)CC(N)C2 (stereo not shown) [CMP-405, 2-aminoindane-5-methylcarboxylate] | 180 | 60 | 289 | 97 | 114 | 353 | 289 | 182 | 157 | 140 | 115 | 113 | 100 | 105 | 103 |  | 
CNC(C)Cc1ccc2c(c1)OCO2 (stereo not shown) [MDMA] |  | 60 | 2232 | 98 | 135 | 2000 | 2232 | 1780 | 1545 | 1472 | 1255 | 1083 |  | 871 | 102 | 980% and 972% | 
COc1ccc2c(c1)CC(N)C2 (stereo not shown) [MEAI, 5-methoxy-2-aminoindane] |  | 40 |  | 98 | 446 | 2365 | 2248 | 1391 | 1036 | 830 | 688 | 564 |  | 340 | 102 | 470% | 2365% and ~2500%
